# Test system: human sense of taste
# Assay: Sweetness measured by human sense of taste (20 trained subjects, minimum concentration at which sweetness is first sensed)
# Type: in vivo
# Details: for Multiples of increased sweetness to minor-type brazzein / Minimum stimulation level in which one senses sweetness for first time: primary brazzein variants; for Multiples of increased sweetness to minor-type brazzein: relative to minor-type brazzein; for Minimum stimulation level in which one senses sweetness for first time: 20 trained subjects; for Sweetness ratios of sucrose (1 g/100 ml) to primary brazzein variants (minor-type brazzein: 2000): relative to 1 g/100 ml sucrose threshold
# Description: Since the recombinant brazzein according to the present invention is not a sucrose-based compound having a cyclic ring, the sweetness of the recombinant brazzein was not measured using a saccharometer. Therefore, the activity of the recombinant brazzein was measured using the human sense of taste. Sugar content measurement was performed on 20 subjects who were trained to feel substantially the same minimum concentration of sucrose in which they could sense sweetness using a sucrose solution. That is, a concentration of each brazzein variant in which the subjects could sense sweetness for the first time was measured. Also, a sweetness ratio of the sucrose solution to the wild-type brazzein was 1 g/100 ml, which was a minimum stimulation level in which the subjects could sense sweetness. Also, a sweetness ratio of the minor-type brazzein protein to the wild-type brazzein was 500 μg/100 ml, which was a minimum stimulation level in which the subjects could sense sweetness. Therefore, the sweetness was calculated using the sweetness ratios (That is, 1/0.0005=2000 for the minor-type brazzein).
# Also, the brazzein multi-variants were measured for activity (sweetness) in the same manner as in Example 3-1.
Substance,Multiples of increased sweetness to minor-type brazzein,Minimum stimulation level in which one senses sweetness for first time,Sweetness ratios of sucrose (1 g/100 ml) to primary brazzein variants (minor-type brazzein: 2000)
K5A: primary brazzein variant: Lys at position 5 of minor-type brazzein substituted with Ala (DKCKAVYENYPVSKCQLANQCNYDCKLRKHARSGECFYDEKRNLQCICDYCEY; Brazzein(K5A)) [Brazzein K5A],0.08,"6,000 μg/100 ml",167
K5D: primary brazzein variant: Lys at position 5 of minor-type brazzein substituted with Asp (DKCKDVYENYPVSKCQLANQCNYDCKLRKHARSGECFYDEKRNLQCICDYCEY; Brazzein(K5D)) [Brazzein K5D],0.08,"6,000 μg/100 ml",167
K5E: primary brazzein variant: Lys at position 5 of minor-type brazzein substituted with Glu (DKCKEVYENYPVSKCQLANQCNYDCKLRKHARSGECFYDEKRNLQCICDYCEY; Brazzein(K5E)) [Brazzein K5E],0.08,"6,000 μg/100 ml",167
K5H: primary brazzein variant: Lys at position 5 of minor-type brazzein substituted with His (DKCKHVYENYPVSKCQLANQCNYDCKLRKHARSGECFYDEKRNLQCICDYCEY; Brazzein(K5H)) [Brazzein K5H],0.05,"10,000 μg/100 ml",100
K5R: primary brazzein variant: Lys at position 5 of minor-type brazzein substituted with Arg (DKCKRVYENYPVSKCQLANQCNYDCKLRKHARSGECFYDEKRNLQCICDYCEY; Brazzein(K5R)) [Brazzein K5R],0.05,"10,000 μg/100 ml",100
K29A: primary brazzein variant: Lys at position 29 of minor-type brazzein substituted with Ala (DKCKKVYENYPVSKCQLANQCNYDCKLRAHARSGECFYDEKRNLQCICDYCEY; Brazzein(K29A)) [Brazzein K29A],0.05,"10,000 μg/100 ml",100
K29D: primary brazzein variant: Lys at position 29 of minor-type brazzein substituted with Asp (DKCKKVYENYPVSKCQLANQCNYDCKLRDHARSGECFYDEKRNLQCICDYCEY; Brazzein(K29D)) [Brazzein K29D],0.05,"10,000 μg/100 ml",100
K29E: primary brazzein variant: Lys at position 29 of minor-type brazzein substituted with Glu (DKCKKVYENYPVSKCQLANQCNYDCKLREHARSGECFYDEKRNLQCICDYCEY; Brazzein(K29E)) [Brazzein K29E],0.05,"10,000 μg/100 ml",100
K29H: primary brazzein variant: Lys at position 29 of minor-type brazzein substituted with His (DKCKKVYENYPVSKCQLANQCNYDCKLRHHARSGECFYDEKRNLQCICDYCEY; Brazzein(K29H)) [Brazzein K29H],0.05,"10,000 μg/100 ml",100
K29R: primary brazzein variant: Lys at position 29 of minor-type brazzein substituted with Arg (DKCKKVYENYPVSKCQLANQCNYDCKLRRHARSGECFYDEKRNLQCICDYCEY; Brazzein(K29R)) [Brazzein K29R],0.05,"10,000 μg/100 ml",100
R32A: primary brazzein variant: Arg at position 32 of minor-type brazzein substituted with Ala (DKCKKVYENYPVSKCQLANQCNYDCKLRKHAASGECFYDEKRNLQCICDYCEY; Brazzein(R32A)) [Brazzein R32A],0.08,"6,000 μg/100 ml",167
R32D: primary brazzein variant: Arg at position 32 of minor-type brazzein substituted with Asp (DKCKKVYENYPVSKCQLANQCNYDCKLRKHADSGECFYDEKRNLQCICDYCEY; Brazzein(R32D)) [Brazzein R32D],0.05,"10,000 μg/100 ml",100
R32E: primary brazzein variant: Arg at position 32 of minor-type brazzein substituted with Glu (DKCKKVYENYPVSKCQLANQCNYDCKLRKHAESGECFYDEKRNLQCICDYCEY; Brazzein(R32E)) [Brazzein R32E],0.05,"10,000 μg/100 ml",100
R32H: primary brazzein variant: Arg at position 32 of minor-type brazzein substituted with His (DKCKKVYENYPVSKCQLANQCNYDCKLRKHAHSGECFYDEKRNLQCICDYCEY; Brazzein(R32H)) [Brazzein R32H],0.16,"3,000 μg/100 ml",334
R32K: primary brazzein variant: Arg at position 32 of minor-type brazzein substituted with Lys (DKCKKVYENYPVSKCQLANQCNYDCKLRKHAKSGECFYDEKRNLQCICDYCEY; Brazzein(R32K)) [Brazzein R32K],0.16,"3,000 μg/100 ml",334
R42A: primary brazzein variant: Arg at position 42 of minor-type brazzein substituted with Ala (DKCKKVYENYPVSKCQLANQCNYDCKLRKHARSGECFYDEKANLQCICDYCEY; Brazzein(R42A)) [Brazzein R42A],0.05,"10,000 μg/100 ml",100
R42D: primary brazzein variant: Arg at position 42 of minor-type brazzein substituted with Asp (DKCKKVYENYPVSKCQLANQCNYDCKLRKHARSGECFYDEKDNLQCICDYCEY; Brazzein(R42D)) [Brazzein R42D],0.05,"10,000 μg/100 ml",100
R42E: primary brazzein variant: Arg at position 42 of minor-type brazzein substituted with Glu (DKCKKVYENYPVSKCQLANQCNYDCKLRKHARSGECFYDEKENLQCICDYCEY; Brazzein(R42E)) [Brazzein R42E],0.05,"10,000 μg/100 ml",100
R42H: primary brazzein variant: Arg at position 42 of minor-type brazzein substituted with His (DKCKKVYENYPVSKCQLANQCNYDCKLRKHARSGECFYDEKHNLQCICDYCEY; Brazzein(R42H)) [Brazzein R42H],0.16,"3,000 μg/100 ml",334
R42K: primary brazzein variant: Arg at position 42 of minor-type brazzein substituted with Lys (DKCKKVYENYPVSKCQLANQCNYDCKLRKHARSGECFYDEKKNLQCICDYCEY; Brazzein(R42K)) [Brazzein R42K],0.16,"3,000 μg/100 ml",334

# Source: patent US8592181B2, “Brazzein variant having higher sweetness and method for preparing multi-variant” (Chung-Ang University Industry-Academy Cooperation Foundation, priority 2009, dated 2013)
